Measured values as given in patent publication US7763728B2, “Tetrahydropyridothiophenes” (4SC AG, priority 2005, dated 2010).

Key:
[1] = test system: RKO (RKOp27) human colon adenocarcinoma cells; assay: Alamar Blue cell viability assay, anti-proliferative/cytotoxic activity on proliferating (uninduced) RKOp27 cells; format: cell-based; details: 72 hours incubation, absence of the inducer Ponasterone A, read-out: IC50 RKO p27 uninduced (proliferating)
Protocol: The anti-proliferative/cytotoxic activity of the compounds described herein, can be tested on subclones of RKO (RKOp27) human colon adenocarcinoma cells (Schmidt et al., Oncogene 19, 2423-2429; 2000) using the Alamar Blue cell viability assay (described in O'Brien et al. Eur J Biochem 267, 5421-5426, 2000). The compounds are dissolved as 20 mM solutions in dimethylsulfoxide (DMSO) and subsequently diluted in semi-logarithmic steps. DMSO dilutions are further diluted 1:100 into Dulbecco's modified Eagle's medium (DMEM) containing 10% fetal calf serum to a final concentration twice as much as the final concentration in the test. RKO subclones are seeded into 96 well flat bottom plates at a density of 5000 cells per well in a volume of 50 μl per well. 24 hours after seeding the 50 μl each of the compound dilutions in DMEM medium are added into each well of the 96 Well plate. Each compound dilution is tested as quadruplicates. Wells containing untreated control cells are filled with 50 μl DMEM medium containing 1% DMSO. The cells are then incubated with the substances for 72 hours at 37° C. in a humified atmosphere containing 5% carbon dioxide. To determine the viability of the cells, 10 μl of an Alamar Blue solution (Biosource) are added and the fluorescence is measured at an extinction of 544 nm and an emission of 590 nm. For the calculation of the cell viability the emission value from untreated cells is set as 100% viability and the emission rates of treated cells are set in relation to the values of untreated cells. Viabilities are expressed as % values.
The corresponding IC50 values of the compounds for anti-proliferative/cytotoxic activity are determined from the concentration-effect curves.
Representative IC50 values for anti-proliferation/cytotoxicity determined in the mentioned assay follow from the following table A, in which the numbers of the compounds correspond to the numbers of the examples.

[2] = test system: RKO colon adenocarcinoma cells (RKOp27) arrested by the expression of ectopic p27Kip1; assay: Alamar Blue cell viability assay on RKOp27 cells arrested by p27Kip1 expression induced by Ponasterone A; format: cell-based; details: Homo sapiens, 72 hours incubation, 10 μM Ponasterone A, read-out: IC50 RKO p27 induced (arrested)
Protocol: To determine the cell cycle specific mode of action, subclones of RKO colon adenocarcinoma cells (RKOp27 or RKOp21 as described by Schmidt et al. in Oncogene 19, 2423-2429; 2000) are seeded into 96 well flat bottom plates at a density of 15000 cells per well in a volume of 50 μl per well in DMEM growth medium with 10% FCS containing 10 μM Ponasterone A. 24 hours after seeding the 50 μl each of the compound dilutions in DMEM medium are added into each well of the 96 Well plate. Each compound dilution is tested as quadruplicates. Wells containing untreated control cells are filled with 50 μl DMEM medium containing 1% DMSO. The cells are then incubated with the substances for 72 hours at 37° C. in a humidified atmosphere containing 5% carbon dioxide. To determine the viability of the cells, 10 μl of an Alamar Blue solution (Biosource) are added and the fluorescence was measured at an extinction of 544 nm and an emission of 590 nm. For the calculation of the cell viability the emission value from untreated cells is set as 100% viability and the emission rates of treated cells are set in relation to the values of untreated cells. Viabilities are expressed as % values. Viability is compared of proliferating cells grown in the absence of the inducer Ponasterone A, versus viability of cells arrested by the expression of ectopic p27Kip1 induced by Ponasterone A.

| Compound | IC50 [2] | IC50 [1] |
| --- | --- | --- |
| COc1ccccc1C(C)CC(=O)Nc1sc2c(c1C#N)CCN(C(=O)CCn1ccnc1C)C2 (racemic) [Example 105, (RS)—N-{3-Cyano-6-[3-(2-methyl-imidazol-1-yl)-propanoyl]-4,5,6,7-tetrahydro-thieno[2,3-c]pyridin-2-yl}-3-(2-methoxy-phenyl)-butyramide] | ≥ 10 µM | 0.3 to 2 µM |
| CCOc1ccccc1C(C)CC(=O)Nc1sc2c(c1C#N)CCN(C(=O)CCn1ccnc1C)C2 (racemic) [Example 106, (RS)—N-{3-Cyano-6-[3-(2-methyl-imidazol-1-yl)-propanoyl]-4,5,6,7-tetrahydro-thieno[2,3-c]pyridin-2-yl}-3-(2-ethoxy-phenyl)-butyramide] | ≥ 10 µM | 0.3 to 2 µM |
| CCOc1ccccc1C(C)CC(=O)Nc1sc2c(c1C#N)CCN(C(=O)CCc1nccn1C)C2 (racemic) [Example 114, (RS)—N-{3-Cyano-6-[3-(1-methyl-1H-imidazol-2-yl)-propanoyl]-4,5,6,7-tetrahydro-thieno[2,3-c]pyridin-2-yl}-3-(2-ethoxy-phenyl)-butyramide] | ≥ 10 µM | 0.3 to 2 µM |
| COc1ccccc1C(C)CC(=O)Nc1sc2c(c1C#N)CCN(C(=O)CCc1ccncc1)C2 (racemic) [Example 120, (RS)—N-[3-Cyano-6-(3-pyridin-4-yl-propanoyl)-4,5,6,7-tetrahydro-thieno[2,3-c]pyridin-2-yl]-3-(2-methoxy-phenyl)-butyramide] | ≥ 10 µM | ≤ 0.3 µM |
| COc1ccccc1C(C)CC(=O)Nc1sc2c(c1C#N)CCN(C(=O)Cn1ccnc1C)C2 (racemic) [Example 127, (RS)—N-{3-Cyano-6-[2-(2-methyl-imidazol-1-yl)-ethanoyl]-4,5,6,7-tetrahydro-thieno[2,3-c]pyridin-2-yl}-3-(2-methoxy-phenyl)-butyramide] | ≥ 40 µM | ≤ 0.3 µM |
| COc1ccccc1C(C)CC(=O)Nc1sc2c(c1C#N)CCN(C(=O)Cn1cnc(C)c1)C2 (racemic) [Example 135, (RS)—N-{3-Cyano-6-[2-(4-methyl-imidazol-1-yl)-ethanoyl]-4,5,6,7-tetrahydro-thieno[2,3-c]pyridin-2-yl}-3-(2-methoxy-phenyl)-butyramide] | ≥ 40 µM | 0.3 to 2 µM |
| CCOc1ccccc1C(C)CC(=O)Nc1sc2c(c1C#N)CCN(C(=O)CCn1cnc(C)c1)C2 (racemic) [Example 153, (RS)—N-{3-Cyano-6-[3-(4-methyl-imidazol-1-yl)-propanoyl]-4,5,6,7-tetrahydro-thieno[2,3-c]pyridin-2-yl}-3-(2-ethoxy-phenyl)-butyramide] | ≥ 10 µM | 0.3 to 2 µM |
| COc1ccccc1CCC(=O)Nc1sc2c(c1C#N)CCN(C(=O)CCc1cccnc1)C2 [Example 1, N-[3-Cyano-6-(3-pyridin-3-yl-propanoyl)-4,5,6,7-tetrahydro-thieno[2,3-c]pyridin-2-yl]-3-(2-methoxy-phenyl)-propionamide] | > 100 µM | ≤ 0.3 µM |
| COc1ccccc1CCC(=O)Nc1sc2c(c1C#N)CCN(C(=O)Cc1cccnc1)C2 [Example 2, N-[3-Cyano-6-(2-pyridin-3-yl-ethanoyl)-4,5,6,7-tetrahydro-thieno[2,3-c]pyridin-2-yl]-3-(2-methoxy-phenyl)-propionamide] | ≥ 40 µM | ≤ 0.3 µM |
| COc1ccccc1CCC(=O)Nc1sc2c(c1C#N)CCN(C(=O)Cc1ccncc1)C2 [Example 3, N-[3-Cyano-6-(2-pyridin-4-yl-ethanoyl)-4,5,6,7-tetrahydro-thieno[2,3-c]pyridin-2-yl]-3-(2-methoxy-phenyl)-propionamide] | ≥ 40 µM | ≤ 0.3 µM |
| COC(=O)CCC(=O)N1CCc2c(sc(NC(=O)CCc3ccccc3OC)c2C#N)C1 [Example 4, 4-{3-Cyano-2-[3-(2-methoxy-phenyl)-propanoylamino]-4,7-dihydro-5H-thieno[2,3-c]pyridin-6-yl}-4-oxo-butyric acid methyl ester] | > 100 µM | 0.3 to 2 µM |

Now from value to compound, other results behind:

| IC50 [2] | Compound | IC50 [1] |
| --- | --- | --- |
| ≥ 10 µM | COc1ccccc1C(C)CC(=O)Nc1sc2c(c1C#N)CCN(C(=O)CCc1nccn1C)C2 (racemic) [Example 113, (RS)—N-{3-Cyano-6-[3-(1-methyl-1H-imidazol-2-yl)-propanoyl]-4,5,6,7-tetrahydro-thieno[2,3-c]pyridin-2-yl}-3-(2-methoxy-phenyl)-butyramide] | 0.3 to 2 µM |
| ≥ 10 µM | CCOc1ccccc1C(C)CC(=O)Nc1sc2c(c1C#N)CCN(C(=O)CCc1ccncc1)C2 (racemic) [Example 121, (RS)—N-[3-Cyano-6-(3-pyridin-4-yl-propanoyl)-4,5,6,7-tetrahydro-thieno[2,3-c]pyridin-2-yl]-3-(2-ethoxy-phenyl)-butyramide] | 0.3 to 2 µM |
| ≥ 10 µM | CCOc1ccccc1C(C)CC(=O)Nc1sc2c(c1C#N)CCN(C(=O)Cn1ccnc1C)C2 (racemic) [Example 128, (RS)—N-{3-Cyano-6-[2-(2-methyl-imidazol-1-yl)-ethanoyl]-4,5,6,7-tetrahydro-thieno[2,3-c]pyridin-2-yl}-3-(2-ethoxy-phenyl)-butyramide] | ≤ 0.3 µM |
| ≥ 10 µM | CCOc1ccccc1C(C)CC(=O)Nc1sc2c(c1C#N)CCN(C(=O)Cn1cnc(C)c1)C2 (racemic) [Example 136, (RS)—N-{3-Cyano-6-[2-(4-methyl-imidazol-1-yl)-ethanoyl]-4,5,6,7-tetrahydro-thieno[2,3-c]pyridin-2-yl}-3-(2-ethoxy-phenyl)-butyramide] | 0.3 to 2 µM |
| ≥ 10 µM | CCOc1ccccc1C(C)CC(=O)Nc1sc2c(c1C#N)CCN(C(=O)CCc1ccccn1)C2 (racemic) [Example 137, (RS)—N-[3-Cyano-6-(3-pyridin-2-yl-propanoyl)-4,5,6,7-tetrahydro-thieno[2,3-c]pyridin-2-yl]-3-(2-ethoxy-phenyl)-butyramide] | ≤ 0.3 µM |
| ≥ 10 µM | COc1ccccc1C(C)CC(=O)Nc1sc2c(c1C#N)CCN(C(=O)Cn1cc(C)nc1C)C2 (racemic) [Example 144, (RS)—N-{3-Cyano-6-[2-(2,4-dimethyl-imidazol-1-yl)-ethanoyl]-4,5,6,7-tetrahydro-thieno[2,3-c]pyridin-2-yl}-3-(2-methoxy-phenyl)-butyramide] | 0.3 to 2 µM |
| ≥ 10 µM | CCOc1ccccc1C(C)CC(=O)Nc1sc2c(c1C#N)CCN(C(=O)Cn1cc(C)nc1C)C2 (racemic) [Example 145, (RS)—N-{3-Cyano-6-[2-(2,4-dimethyl-imidazol-1-yl)-ethanoyl]-4,5,6,7-tetrahydro-thieno[2,3-c]pyridin-2-yl}-3-(2-ethoxy-phenyl)-butyramide] | ≤ 0.3 µM |
| ≥ 10 µM | COc1ccccc1C(C)CC(=O)Nc1sc2c(c1C#N)CCN(C(=O)CCn1cnc(C)c1)C2 (racemic) [Example 152, (RS)—N-{3-Cyano-6-[3-(4-methyl-imidazol-1-yl)-propanoyl]-4,5,6,7-tetrahydro-thieno[2,3-c]pyridin-2-yl}-3-(2-methoxy-phenyl)-butyramide] | 0.3 to 2 µM |
| > 100 µM | COCC(=O)N1CCc2c(sc(NC(=O)CCc3ccccc3OC)c2C#N)C1 [Example 5, N-[3-Cyano-6-(2-methoxy-ethanoyl)-4,5,6,7-tetrahydro-thieno[2,3-c]pyridin-2-yl]-3-(2-methoxy-phenyl)-propionamide] | ≤ 0.3 µM |
